Reference: ChEMBL document CHEMBL5696442, “Discovery of type II inhibitors of TGFβ-activated kinase 1 (TAK1) and mitogen-activated protein kinase kinase kinase kinase 2 (MAP4K2)” (J Med Chem, 2015)
Calls of active or inactive are those of the source. The rule behind the calls is not given here.

Key:
[1] = biological target: Bone morphogenetic protein receptor type-1A (Homo sapiens) (UniProt P36894); experiment: Inhibition of BMPR1A (unknown origin) at 10 uM by Ambit Kinomescan binding assay
[2] = biological target: Cyclin-dependent kinase 5 (Homo sapiens) (UniProt Q00535); experiment: Inhibition of CDK5 Lys2 labeling site in human A-375 cells at 5 uM by KiNativ Profiling analysis relative to control; assay type: cell-based
Cyclin-dependent kinase 5 (Homo sapiens), sequence (Q00535 whole entry, looked up): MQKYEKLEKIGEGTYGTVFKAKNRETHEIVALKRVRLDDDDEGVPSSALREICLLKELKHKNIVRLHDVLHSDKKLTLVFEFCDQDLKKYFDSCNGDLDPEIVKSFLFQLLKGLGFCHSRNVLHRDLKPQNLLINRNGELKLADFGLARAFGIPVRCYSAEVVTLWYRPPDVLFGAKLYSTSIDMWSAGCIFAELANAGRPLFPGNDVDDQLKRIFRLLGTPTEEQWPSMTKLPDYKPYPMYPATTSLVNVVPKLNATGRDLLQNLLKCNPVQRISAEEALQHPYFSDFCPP

[3] = biological target: T1, Aurora kinase A (Homo sapiens) (UniProt O14965); experiment: Inhibition of AurA K2 labeling site harbouring VIHRDIKPENLLLGSAGELK in human Huh-7 cells at 10 uM by KiNativ Profiling analysis relative to control; assay type: cell-based
T1 sequence (whole entry): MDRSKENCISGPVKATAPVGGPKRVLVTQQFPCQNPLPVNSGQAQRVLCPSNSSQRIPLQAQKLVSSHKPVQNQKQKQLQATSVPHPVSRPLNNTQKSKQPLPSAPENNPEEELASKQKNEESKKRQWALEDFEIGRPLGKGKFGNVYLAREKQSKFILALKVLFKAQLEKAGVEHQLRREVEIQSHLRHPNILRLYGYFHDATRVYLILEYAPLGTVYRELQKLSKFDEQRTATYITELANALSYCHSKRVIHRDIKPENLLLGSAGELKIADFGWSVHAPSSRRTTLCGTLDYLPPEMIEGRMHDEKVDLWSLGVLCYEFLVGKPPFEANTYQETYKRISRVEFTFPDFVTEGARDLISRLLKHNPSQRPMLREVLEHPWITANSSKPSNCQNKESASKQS

[4] = biological target: T2, Serine/threonine-protein kinase Chk1 (Homo sapiens) (UniProt O14757); experiment: Inhibition of CHK1 in human Huh-7 cells at 10 uM by KiNativ Profiling analysis relative to control; assay type: cell-based
T2 sequence (whole entry): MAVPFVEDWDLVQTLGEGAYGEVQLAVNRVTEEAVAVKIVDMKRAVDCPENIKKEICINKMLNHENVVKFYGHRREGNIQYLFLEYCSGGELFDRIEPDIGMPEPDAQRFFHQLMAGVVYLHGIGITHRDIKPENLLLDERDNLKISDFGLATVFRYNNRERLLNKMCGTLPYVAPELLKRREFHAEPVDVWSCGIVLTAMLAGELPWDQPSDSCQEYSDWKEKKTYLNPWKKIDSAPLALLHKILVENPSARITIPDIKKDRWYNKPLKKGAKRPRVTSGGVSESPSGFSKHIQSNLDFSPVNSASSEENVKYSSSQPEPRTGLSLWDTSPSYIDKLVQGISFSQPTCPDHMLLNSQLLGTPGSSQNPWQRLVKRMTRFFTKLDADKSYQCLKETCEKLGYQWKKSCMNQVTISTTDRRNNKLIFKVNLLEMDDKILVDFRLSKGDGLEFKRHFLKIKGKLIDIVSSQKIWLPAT

[5] = biological target: T3, Serine/threonine-protein kinase LATS2 (Homo sapiens) (UniProt Q9NRM7); experiment: Inhibition of LATS2 Lys2 labeling site in human A-375 cells at 5 uM by KiNativ Profiling analysis relative to control; assay type: cell-based
T3 sequence (whole entry): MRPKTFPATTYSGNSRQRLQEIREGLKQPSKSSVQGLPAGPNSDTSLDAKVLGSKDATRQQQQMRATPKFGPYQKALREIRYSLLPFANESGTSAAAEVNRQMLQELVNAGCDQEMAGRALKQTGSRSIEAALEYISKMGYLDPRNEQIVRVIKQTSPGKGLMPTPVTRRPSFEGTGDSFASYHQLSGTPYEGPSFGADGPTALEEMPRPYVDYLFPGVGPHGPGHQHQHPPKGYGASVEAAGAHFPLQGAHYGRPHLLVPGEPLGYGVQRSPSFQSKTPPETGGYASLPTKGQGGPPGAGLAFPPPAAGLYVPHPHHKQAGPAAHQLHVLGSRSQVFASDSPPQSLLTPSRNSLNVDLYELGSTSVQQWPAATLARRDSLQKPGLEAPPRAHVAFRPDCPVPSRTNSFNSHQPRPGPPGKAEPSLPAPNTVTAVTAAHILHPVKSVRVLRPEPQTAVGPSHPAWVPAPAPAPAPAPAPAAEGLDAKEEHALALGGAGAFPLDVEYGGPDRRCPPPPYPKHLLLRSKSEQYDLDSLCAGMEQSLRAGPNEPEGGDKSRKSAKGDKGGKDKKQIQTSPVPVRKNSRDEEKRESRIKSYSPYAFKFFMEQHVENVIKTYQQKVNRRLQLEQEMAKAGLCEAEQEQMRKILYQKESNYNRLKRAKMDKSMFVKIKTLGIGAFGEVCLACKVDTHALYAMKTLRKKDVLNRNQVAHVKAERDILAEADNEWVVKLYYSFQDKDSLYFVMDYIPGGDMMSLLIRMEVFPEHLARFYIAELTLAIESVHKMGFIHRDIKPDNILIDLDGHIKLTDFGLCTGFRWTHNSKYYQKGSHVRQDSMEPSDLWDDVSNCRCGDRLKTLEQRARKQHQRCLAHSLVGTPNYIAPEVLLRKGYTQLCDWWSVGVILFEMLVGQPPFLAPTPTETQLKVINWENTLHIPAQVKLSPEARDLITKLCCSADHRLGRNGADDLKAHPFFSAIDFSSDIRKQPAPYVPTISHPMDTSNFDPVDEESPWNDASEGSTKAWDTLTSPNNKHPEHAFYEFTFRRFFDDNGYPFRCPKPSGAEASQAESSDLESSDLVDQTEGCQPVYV

[6] = biological target: Serine/threonine-protein kinase PAK 3 (Homo sapiens) (UniProt O75914); experiment: Inhibition of PAK3 (unknown origin) at 10 uM by Ambit Kinomescan binding assay
Serine/threonine-protein kinase PAK 3 (Homo sapiens), sequence (O75914 whole entry, looked up): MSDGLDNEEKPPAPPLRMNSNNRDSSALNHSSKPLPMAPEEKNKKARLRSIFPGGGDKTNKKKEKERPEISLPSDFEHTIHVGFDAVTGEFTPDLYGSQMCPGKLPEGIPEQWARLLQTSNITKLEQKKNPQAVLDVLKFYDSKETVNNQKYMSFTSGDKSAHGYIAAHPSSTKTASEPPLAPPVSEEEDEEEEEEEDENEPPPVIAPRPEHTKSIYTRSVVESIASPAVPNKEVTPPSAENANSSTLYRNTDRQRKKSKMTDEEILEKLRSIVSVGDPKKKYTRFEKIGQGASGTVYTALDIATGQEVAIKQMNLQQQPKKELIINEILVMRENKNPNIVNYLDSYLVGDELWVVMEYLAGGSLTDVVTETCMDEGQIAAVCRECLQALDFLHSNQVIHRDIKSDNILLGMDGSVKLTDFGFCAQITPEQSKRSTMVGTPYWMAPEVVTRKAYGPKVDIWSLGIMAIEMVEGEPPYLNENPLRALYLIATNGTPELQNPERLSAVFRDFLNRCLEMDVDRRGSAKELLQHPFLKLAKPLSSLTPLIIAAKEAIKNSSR

[7] = Inhibition of Wnk1/2/3 K2 labeling site in human Huh-7 cells at 1 uM by KiNativ Profiling analysis relative to control; settings: condition cancer
[8] = Inhibition of TLK1/2 K2 labeling site in human Huh-7 cells at 10 uM by KiNativ Profiling analysis relative to control; settings: condition cancer
RAW = experiment: Inhibition of LPS induced JNK1/2 phosphorylation in mouse RAW cells preincubated for 1 hr followed by LPS stimulation and measured after 30 mins by Western blot analysis; assay type: functional, cell-based; settings: dose 0.01-10 µM
[9] = biological target: Mitogen-activated protein kinase 11 (Homo sapiens) (UniProt Q15759); experiment: Inhibition of p38 beta in human A-375 cells at 5 uM by KiNativ Profiling analysis relative to control; assay type: cell-based
Mitogen-activated protein kinase 11 (Homo sapiens), sequence (Q15759 whole entry): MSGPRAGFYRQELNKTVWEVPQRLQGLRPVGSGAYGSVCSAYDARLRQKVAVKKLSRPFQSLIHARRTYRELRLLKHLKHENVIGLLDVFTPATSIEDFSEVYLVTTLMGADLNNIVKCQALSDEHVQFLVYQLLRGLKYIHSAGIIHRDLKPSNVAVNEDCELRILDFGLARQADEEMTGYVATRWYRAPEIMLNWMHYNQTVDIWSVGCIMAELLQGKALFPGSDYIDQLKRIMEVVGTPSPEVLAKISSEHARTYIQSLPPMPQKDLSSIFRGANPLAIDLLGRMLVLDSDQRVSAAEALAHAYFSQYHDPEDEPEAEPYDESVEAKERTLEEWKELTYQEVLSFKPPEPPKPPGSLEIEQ

[10] = biological target: Diacylglycerol kinase alpha (Homo sapiens) (UniProt P23743); experiment: Inhibition of DGKA ATP labeling site harbouring in human A-375 cells at 5 uM by KiNativ Profiling analysis relative to control; assay type: cell-based
Diacylglycerol kinase alpha (Homo sapiens), sequence (P23743 whole entry, the tested form may be a part): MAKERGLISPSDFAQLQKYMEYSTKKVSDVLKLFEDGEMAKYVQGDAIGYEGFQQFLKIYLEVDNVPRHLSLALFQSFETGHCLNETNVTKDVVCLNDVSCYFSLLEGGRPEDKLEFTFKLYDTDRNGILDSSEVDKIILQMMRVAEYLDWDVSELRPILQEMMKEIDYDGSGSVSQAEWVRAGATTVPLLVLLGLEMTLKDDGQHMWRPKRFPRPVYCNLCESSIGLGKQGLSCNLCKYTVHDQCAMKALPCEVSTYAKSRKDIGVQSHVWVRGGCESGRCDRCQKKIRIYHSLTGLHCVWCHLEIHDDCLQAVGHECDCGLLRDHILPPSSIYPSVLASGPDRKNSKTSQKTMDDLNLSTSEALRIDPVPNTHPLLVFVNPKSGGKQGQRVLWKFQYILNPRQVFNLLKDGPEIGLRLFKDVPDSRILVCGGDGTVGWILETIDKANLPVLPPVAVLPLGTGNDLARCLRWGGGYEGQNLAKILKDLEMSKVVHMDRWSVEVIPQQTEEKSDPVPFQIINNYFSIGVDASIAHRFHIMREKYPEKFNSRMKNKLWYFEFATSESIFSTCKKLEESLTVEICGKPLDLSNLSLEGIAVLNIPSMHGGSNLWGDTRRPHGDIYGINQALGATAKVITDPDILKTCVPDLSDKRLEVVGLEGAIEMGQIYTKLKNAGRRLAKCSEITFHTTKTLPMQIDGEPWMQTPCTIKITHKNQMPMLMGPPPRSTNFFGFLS

[11] = biological target: Ribosomal protein S6 kinase alpha-5 (Homo sapiens) (UniProt O75582); experiment: Inhibition of N-terminal RPS6KA5 kinase domain 1 (unknown origin) at 1 uM by Ambit Kinomescan binding assay relative to control
Ribosomal protein S6 kinase alpha-5 (Homo sapiens), sequence (O75582 whole entry, looked up, the tested form may be a part): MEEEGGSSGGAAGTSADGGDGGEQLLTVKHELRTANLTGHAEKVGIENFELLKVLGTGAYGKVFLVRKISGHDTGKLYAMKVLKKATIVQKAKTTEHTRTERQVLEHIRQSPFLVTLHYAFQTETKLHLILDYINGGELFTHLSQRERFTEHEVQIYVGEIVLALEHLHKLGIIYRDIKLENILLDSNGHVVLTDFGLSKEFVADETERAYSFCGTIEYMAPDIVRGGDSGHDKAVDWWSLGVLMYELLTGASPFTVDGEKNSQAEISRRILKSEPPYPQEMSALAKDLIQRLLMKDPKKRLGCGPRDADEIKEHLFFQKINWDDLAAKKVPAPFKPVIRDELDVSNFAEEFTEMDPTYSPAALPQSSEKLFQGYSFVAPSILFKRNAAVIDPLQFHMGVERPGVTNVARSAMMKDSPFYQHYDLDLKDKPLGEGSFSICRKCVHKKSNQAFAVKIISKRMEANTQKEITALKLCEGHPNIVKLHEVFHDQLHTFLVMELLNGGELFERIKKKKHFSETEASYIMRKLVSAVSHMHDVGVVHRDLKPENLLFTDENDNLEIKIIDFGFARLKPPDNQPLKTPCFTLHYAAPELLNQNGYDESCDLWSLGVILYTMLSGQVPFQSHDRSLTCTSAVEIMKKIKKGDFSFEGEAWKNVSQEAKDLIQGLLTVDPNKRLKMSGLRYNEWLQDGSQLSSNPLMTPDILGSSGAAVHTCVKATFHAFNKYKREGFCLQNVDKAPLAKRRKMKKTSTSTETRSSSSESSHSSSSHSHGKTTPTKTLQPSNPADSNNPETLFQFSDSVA

[12] = biological target: Ribosomal protein S6 kinase alpha-4 (Homo sapiens) (UniProt O75676); experiment: Inhibition of N-terminal RPS6KA4 kinase domain 1 (unknown origin) at 1 uM by Ambit Kinomescan binding assay relative to control
Ribosomal protein S6 kinase alpha-4 (Homo sapiens), sequence (O75676 whole entry, looked up, the tested form may be a part): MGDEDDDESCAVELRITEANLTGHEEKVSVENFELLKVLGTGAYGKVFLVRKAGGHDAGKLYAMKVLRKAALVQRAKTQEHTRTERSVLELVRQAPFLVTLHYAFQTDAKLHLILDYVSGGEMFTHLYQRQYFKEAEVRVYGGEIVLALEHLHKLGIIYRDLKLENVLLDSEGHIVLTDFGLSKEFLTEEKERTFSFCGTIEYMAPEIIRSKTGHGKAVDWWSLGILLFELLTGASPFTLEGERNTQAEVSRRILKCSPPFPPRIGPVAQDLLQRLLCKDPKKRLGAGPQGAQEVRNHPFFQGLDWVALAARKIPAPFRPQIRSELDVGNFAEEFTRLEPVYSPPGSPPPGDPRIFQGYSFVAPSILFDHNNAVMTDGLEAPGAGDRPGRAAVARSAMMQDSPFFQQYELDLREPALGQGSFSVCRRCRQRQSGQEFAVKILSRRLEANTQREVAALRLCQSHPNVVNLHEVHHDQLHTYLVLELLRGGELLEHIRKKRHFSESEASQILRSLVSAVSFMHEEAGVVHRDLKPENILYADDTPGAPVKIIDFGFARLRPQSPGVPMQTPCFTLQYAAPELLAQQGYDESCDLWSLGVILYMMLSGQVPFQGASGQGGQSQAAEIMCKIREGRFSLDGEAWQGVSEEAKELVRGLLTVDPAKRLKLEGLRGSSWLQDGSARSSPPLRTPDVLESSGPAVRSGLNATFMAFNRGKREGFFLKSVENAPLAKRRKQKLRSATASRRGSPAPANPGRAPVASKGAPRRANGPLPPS

Bone morphogenetic protein receptor type-1A (Homo sapiens), sequence (P36894 whole entry): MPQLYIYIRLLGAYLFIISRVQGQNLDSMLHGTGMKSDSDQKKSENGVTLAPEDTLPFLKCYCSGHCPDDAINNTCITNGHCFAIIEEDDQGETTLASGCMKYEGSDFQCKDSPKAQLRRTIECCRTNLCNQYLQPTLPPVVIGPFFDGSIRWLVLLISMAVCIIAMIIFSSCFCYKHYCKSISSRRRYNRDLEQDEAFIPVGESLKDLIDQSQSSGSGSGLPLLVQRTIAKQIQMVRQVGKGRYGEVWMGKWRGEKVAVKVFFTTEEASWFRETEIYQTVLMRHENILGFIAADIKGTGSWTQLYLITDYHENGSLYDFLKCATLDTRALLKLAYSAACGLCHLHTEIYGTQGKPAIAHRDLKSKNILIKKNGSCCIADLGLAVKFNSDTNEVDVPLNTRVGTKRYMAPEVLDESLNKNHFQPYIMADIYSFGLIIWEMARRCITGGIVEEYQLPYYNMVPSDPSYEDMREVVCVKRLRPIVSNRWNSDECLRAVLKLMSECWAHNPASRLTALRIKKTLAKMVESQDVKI

SMILES | inhibition [1] | inhibition [2] [%] | inhibition [3] | inhibition [4] [%] | inhibition [5] [%] | inhibition [6] | inhibition at 1 µM [7] [%] | inhibition at 10 µM [8] [%] | inhibition (RAW) | inhibition [9] [%] | inhibition [10] [%] | inhibition [11] [%] | inhibition [12] [%]
CCN1CCN(Cc2ccc(NC(=O)c3ccc(C)c(Oc4ccnc5[nH]ccc45)c3)cc2C(F)(F)F)CC1 | inactive | -6.8 | inactive | 12.3 | 5.5 | inactive | -17.1 | -23.9 | Dose-Dependent Effect | – | – | – | –
CCN1CCN(Cc2ccc(NC(=O)c3ccc(C)c(/C=C/c4cnc5[nH]ccc5c4OC)c3)cc2C(F)(F)F)CC1 | – | – | – | – | – | – | – | – | – | 79.9 | -1.8 | 62 | 72
